Measured values reported in PubChem BioAssay (NCI).
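Tested at 5 concentrations; 48 h exposure; 96-well plates; endpoints linearly interpolated, else capped at highest concentration. TGI is the concentration that stops growth completely.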

Columns and labels:
Assay in all cases: NCI anticancer screen, dose series, 48 h
[1] = system: HOP-62 NSCLC
[2] = system: NCI-H23 lung
[3] = system: SK-OV-3 ovarian
[4] = system: COLO 205 colon
[5] = system: HCT-15 colon
[6] = system: NCI-H226 lung
[7] = system: SN12C renal
[8] = system: MDA-MB-435
[9] = system: NCI/ADR-RES ovarian
[10] = system: MCF7 breast
[11] = system: OVCAR-8 ovarian
[12] = system: ACHN renal
[13] = system: OVCAR-4 ovarian
[14] = system: BT-549 breast
[15] = system: SF-268 CNS
[16] = system: SW-620 colon
[17] = system: U251 CNS
[18] = system: T-47D breast
[19] = system: RPMI-8226 leukemia
[20] = system: HCC-2998 colon
[21] = system: A498 renal
[22] = system: HL-60(TB) leukemia
[23] = system: UACC-62 melanoma
[24] = system: SK-MEL-5 melanoma
[25] = system: NCI-H460 lung
[26] = system: HS 578T breast
[27] = system: SNB-19 CNS
[28] = system: KM12 colon
[29] = system: CCRF-CEM leukemia
[30] = system: SF-295 CNS
[31] = system: DU-145 prostate
[32] = system: LOX IMVI melanoma
[33] = system: K-562 leukemia
[34] = system: EKVX NSCLC
[35] = system: HCT-116 colon
[36] = system: OVCAR-5 ovarian
[37] = system: HT29 colon
[38] = system: OVCAR-3 ovarian
[39] = system: HOP-92 NSCLC
[40] = system: UO-31 renal
[41] = system: UACC-257 melanoma
[42] = system: MOLT-4 leukemia
[43] = system: IGROV1 ovarian
[44] = system: PC-3 prostate
[45] = system: SK-MEL-28 melanoma
[46] = system: NCI-H522 lung
[47] = system: SK-MEL-2 melanoma
[48] = system: RXF 393 renal
[49] = system: M14 melanoma
[50] = system: MALME-3M melanoma
[51] = system: A549 NSCLC
[52] = system: 786-0 renal
[53] = system: MDA-MB-231 breast
[54] = system: SNB-75 CNS
[55] = system: CAKI-1 renal
[56] = system: SR leukemia
[57] = system: TK-10 renal
[58] = system: SF-539 CNS

Structure (SMILES): Nc1ccc2[nH]c(C(=O)N3CC(CCl)c4c3cc(N)c3ccccc43)cc2c1 (centres undefined)
- TGI [1]: 0.0556 µM
- TGI [2]: < 0.01 µM
- TGI [3]: 1.21 µM
- TGI [4]: 0.0223 µM
- TGI [5]: 1.28 µM
- TGI [6]: < 0.01 µM
- TGI [7]: 0.0325 µM
- TGI [8]: 0.025 µM
- TGI [9]: < 0.01 µM
- TGI [10]: 0.153 µM
- TGI [11]: 0.0236 µM
- TGI [12]: 0.0103 µM
- TGI [13]: < 0.01 µM
- TGI [14]: < 0.0244 µM
- TGI [15]: < 0.01 µM
- TGI [16]: 0.124 µM
- TGI [17]: 0.147 µM
- TGI [18]: 0.455 µM
- TGI [19]: < 0.0255 µM
- TGI [20]: < 0.01 µM
- TGI [21]: 0.0288 µM
- TGI [22]: 0.0162 µM
- TGI [23]: 0.0101 µM
- TGI [24]: < 0.0414 µM
- TGI [25]: < 0.01 µM
- TGI [26]: 0.057 µM
- TGI [27]: < 0.0489 µM
- TGI [28]: 0.0714 µM
- TGI [29]: > 100 µM
- TGI [30]: < 0.01 µM
- TGI [31]: < 0.01 µM
- TGI [32]: 0.0145 µM
- TGI [33]: > 100 µM
- TGI [34]: 0.0313 µM
- TGI [35]: 1.09 µM
- TGI [36]: > 100 µM
- TGI [37]: < 0.0229 µM
- TGI [38]: > 100 µM

Structure (SMILES): O=C1Nc2cccc3cc(NCC(O)CCl)cc1c23 (centres undefined)
- TGI [1]: > 100 µM
- TGI [2]: > 100 µM
- TGI [3]: > 100 µM
- TGI [39]: > 100 µM
- TGI [4]: > 100 µM
- TGI [5]: > 100 µM
- TGI [40]: 92.1 µM
- TGI [6]: > 100 µM
- TGI [41]: > 100 µM
- TGI [7]: > 100 µM
- TGI [42]: 95.2 µM
- TGI [8]: > 100 µM
- TGI [9]: > 100 µM
- TGI [43]: > 100 µM
- TGI [10]: > 100 µM
- TGI [11]: > 100 µM
- TGI [44]: > 100 µM
- TGI [45]: > 100 µM
- TGI [12]: > 100 µM
- TGI [13]: > 100 µM
- TGI [14]: > 100 µM
- TGI [15]: > 100 µM
- TGI [16]: > 100 µM
- TGI [17]: > 100 µM
- TGI [18]: > 100 µM
- TGI [19]: > 100 µM
- TGI [20]: > 100 µM
- TGI [22]: > 100 µM
- TGI [23]: > 100 µM
- TGI [46]: > 100 µM
- TGI [24]: > 100 µM
- TGI [25]: > 100 µM
- TGI [26]: > 100 µM
- TGI [47]: 69.9 µM
- TGI [48]: > 100 µM
- TGI [49]: > 100 µM
- TGI [50]: > 100 µM
- TGI [27]: > 100 µM
- TGI [28]: > 100 µM
- TGI [51]: > 100 µM
- TGI [29]: > 100 µM
- TGI [30]: > 100 µM
- TGI [31]: > 100 µM
- TGI [52]: > 100 µM
- TGI [32]: > 100 µM
- TGI [33]: > 100 µM
- TGI [53]: > 100 µM
- TGI [54]: > 100 µM
- TGI [34]: > 100 µM
- TGI [35]: > 100 µM
- TGI [55]: > 100 µM
- TGI [56]: 48 µM
- TGI [36]: > 100 µM
- TGI [37]: > 100 µM
- TGI [38]: > 100 µM
- TGI [57]: > 100 µM

Structure (SMILES): Oc1ccc(CCc2cc(O)cc(O)c2)cc1
- TGI [1]: > 100 µM
- TGI [2]: > 100 µM
- TGI [3]: > 100 µM
- TGI [39]: > 100 µM
- TGI [4]: > 100 µM
- TGI [5]: > 100 µM
- TGI [40]: > 100 µM
- TGI [6]: > 100 µM
- TGI [41]: > 100 µM
- TGI [7]: > 100 µM
- TGI [42]: > 100 µM
- TGI [8]: > 100 µM
- TGI [9]: > 100 µM
- TGI [43]: > 100 µM
- TGI [10]: > 100 µM
- TGI [11]: > 100 µM
- TGI [44]: > 100 µM
- TGI [45]: > 100 µM
- TGI [12]: > 100 µM
- TGI [13]: > 100 µM
- TGI [14]: > 100 µM
- TGI [15]: > 100 µM
- TGI [16]: > 100 µM
- TGI [17]: > 100 µM
- TGI [18]: > 100 µM
- TGI [19]: > 100 µM
- TGI [21]: > 100 µM
- TGI [22]: > 100 µM
- TGI [23]: > 100 µM
- TGI [46]: > 100 µM
- TGI [24]: > 100 µM
- TGI [25]: > 100 µM
- TGI [26]: > 100 µM
- TGI [47]: > 100 µM
- TGI [48]: > 100 µM
- TGI [49]: > 100 µM
- TGI [50]: > 100 µM
- TGI [58]: > 100 µM
- TGI [27]: > 100 µM
- TGI [28]: > 100 µM
- TGI [51]: > 100 µM
- TGI [30]: > 100 µM
- TGI [31]: > 100 µM
- TGI [52]: > 100 µM
- TGI [33]: > 100 µM
- TGI [53]: > 100 µM
- TGI [54]: > 100 µM
- TGI [34]: > 100 µM
- TGI [35]: > 100 µM
- TGI [55]: > 100 µM
- TGI [56]: > 100 µM
- TGI [36]: > 100 µM
- TGI [37]: > 100 µM
- TGI [38]: > 100 µM
- TGI [57]: > 100 µM
